Usually IC50 stands for the concentration needed to halve the response being measured.

The experiment deals with IFNα-Induced STAT Phosphorylation in Human Whole Blood. Briefly: IFNα-Induced STAT Phosphorylation in Human Whole Blood. Type of experiment: cell-based. The conditions noted are these: 1 h incubation with compound, 1000 U/mL recombinant human IFNα A/D for 15 min, pSTAT5 (pY694) median fluorescence intensity in CD3 positive population, read-out: hWB IC50. How it is done: IFNα-Induced STAT Phosphorylation in Human Whole Blood
After an hour long incubation with compound, human whole blood (drawn with either EDTA or ACD-A as anti-coagulant) was stimulated with 1000 U/mL recombinant human IFNα A/D (R&D Systems 11200-2) for 15 min. The stimulation was stopped by adding Fix/Lyse buffer (BD 558049). Cells were stained with a CD3 FITC antibody (BD 555916), washed, and permeabilized on ice using Perm III buffer (BD 558050). […] The amount of pSTAT5 expression was quantitated by median fluorescence intensity after gating on the CD3 positive population.
IFNα-Induced STAT Phosphorylation in Human Whole Blood Inhibition Data
Take `[2H]C([2H])([2H])NC(=O)c1cnc(Nc2cnc(C#N)cn2)cc1Nc1cccc(-c2ncccn2)c1OC` [Example 72, 6-((5-cyanopyrazin-2-yl)amino)-4-((2-methoxy-3-(pyrimidin-2-yl)phenyl)amino)-N-(methyl-d3)nicotinamide]: the IC50 is 168 nM. Consider `[2H]C([2H])([2H])NC(=O)c1cnc(Nc2ccc(OC)nn2)cc1Nc1cccc(-c2ncc(F)cn2)c1OC` [Example 74, 4-((3-(5-fluoropyrimidin-2-yl)-2-methoxyphenyl)amino)-6-((6-methoxypyridazin-3-yl)amino)-N-(methyl-d3)nicotinamide], for which the IC50 was found to be 87 nM. With `[2H]C([2H])([2H])NC(=O)c1cnc(Nc2ccc(C(F)(F)F)nn2)cc1Nc1cccc(-c2ncccn2)c1OC` [Example 76, 4-((2-methoxy-3-(pyrimidin-2-yl)phenyl)amino)-N-(methyl-d3)-6-((6-(trifluoromethyl)pyridazin-3-yl)amino)nicotinamide], the IC50 turned out to be 77 nM. Then `[2H]C([2H])([2H])NC(=O)c1cnc(Nc2cc(=O)n(C)cn2)cc1Nc1cccc(-c2ncc(F)cn2)c1OC` [Example 77, 4-((3-(5-fluoropyrimidin-2-yl)-2-methoxyphenyl)amino)-N-(methyl-d3)-6-((1-methyl-6-oxo-1,6-dihydropyrimidin-4-yl)amino)nicotinamide], with 228 nM; and `[2H]C([2H])([2H])NC(=O)c1nnc(Nc2ccn(C3CC3)n2)cc1Nc1cccc(-c2ncc(F)cn2)c1OC` [Example 78, 6-((1-cyclopropyl-1H-pyrazol-3-yl)amino)-4-((3-(5-fluoropyrimidin-2-yl)-2-methoxyphenyl)amino)-N-(methyl-d3)pyridazine-3-carboxamide], with 192 nM.

On to `[2H]C([2H])([2H])NC(=O)c1nnc(Nc2cc(C#N)n(C)n2)cc1Nc1cccc(-c2ncccn2)c1OC` [Example 80, 6-((5-cyano-1-methyl-1H-pyrazol-3-yl)amino)-4-((2-methoxy-3-(pyrimidin-2-yl)phenyl)amino)-N-(methyl-d3)pyridazine-3-carboxamide], for which the IC50 amounted to 80 nM. For the compound `[2H]C([2H])([2H])NC(=O)c1nnc(Nc2cc(C(C)(C)O)n(C)n2)cc1Nc1cccc(-c2ncccn2)c1OC` [Example 81, 6-((5-(2-hydroxypropan-2-yl)-1-methyl-1H-pyrazol-3-yl)amino)-4-((2-methoxy-3-(pyrimidin-2-yl)phenyl)amino)-N-(methyl-d3)pyridazine-3-carboxamide], the IC50 was found to be 14 nM.

As to `[2H]C([2H])([2H])NC(=O)c1nnc(Nc2cc(C(C)(C)O)n(C)n2)cc1Nc1cccc(-c2ncc(F)cn2)c1OC` [Example 82, 4-((3-(5-fluoropyrimidin-2-yl)-2-methoxyphenyl)amino)-6-((5-(2-hydroxypropan-2-yl)-1-methyl-1H-pyrazol-3-yl)amino)-N-(methyl-d3)pyridazine-3-carboxamide], the IC50 was 49 nM.

`[2H]C([2H])([2H])NC(=O)c1nnc(Nc2cc(C(C)(C)O)n(C)n2)cc1Nc1cc(F)cc(-c2ncc(F)cn2)c1OC` [Example 83, 4-((5-fluoro-3-(5-fluoropyrimidin-2-yl)-2-methoxyphenyl)amino)-6-((5-(2-hydroxypropan-2-yl)-1-methyl-1H-pyrazol-3-yl)amino)-N-(methyl-d3)pyridazine-3-carboxamide]: the IC50 came to 77 nM. Then `[2H]C([2H])([2H])NC(=O)c1nnc(Nc2cc(C(C)(C)O)n(C)n2)cc1Nc1cc(F)cc(-c2ncccn2)c1OC` [Example 84, 4-((5-fluoro-2-methoxy-3-(pyrimidin-2-yl)phenyl)amino)-6-((5-(2-hydroxypropan-2-yl)-1-methyl-1H-pyrazol-3-yl)amino)-N-(methyl-d3)pyridazine-3-carboxamide], with 19 nM. Regarding `[2H]C([2H])([2H])NC(=O)c1nnc(Nc2cc(C(=O)N(C)C)n(C)n2)cc1Nc1cccc(-c2ncc(F)cn2)c1OC` [Example 85, 6-((5-(dimethylcarbamoyl)-1-methyl-1H-pyrazol-3-yl)amino)-4-((3-(5-fluoropyrimidin-2-yl)-2-methoxyphenyl)amino)-N-(methyl-d3)pyridazine-3-carboxamide], the IC50 was 43 nM. Then `[2H]C([2H])([2H])NC(=O)c1nnc(Nc2cnn(CC)n2)cc1Nc1cccc(-c2ncccn2)c1OC` [Example 86, 6-((2-ethyl-2H-1,2,3-triazol-4-yl)amino)-4-((2-methoxy-3-(pyrimidin-2-yl)phenyl)amino)-N-(methyl-d3)pyridazine-3-carboxamide], with 96 nM.

On to `[2H]C([2H])([2H])NC(=O)c1nnc(Nc2cnn(CC)n2)cc1Nc1cccc(-c2ncc(F)cn2)c1OC` [Example 87, 6-((2-ethyl-2H-1,2,3-triazol-4-yl)amino)-4-((3-(5-fluoropyrimidin-2-yl)-2-methoxyphenyl)amino)-N-(methyl-d3)pyridazine-3-carboxamide], for which the IC50 worked out at 343 nM.

Take `[2H]C([2H])([2H])NC(=O)c1nnc(Nc2cn(CC)nn2)cc1Nc1cccc(-c2ncccn2)c1OC` [Example 88, 6-((1-ethyl-1H-1,2,3-triazol-4-yl)amino)-4-((2-methoxy-3-(pyrimidin-2-yl)phenyl)amino)-N-(methyl-d3)pyridazine-3-carboxamide]: the concentration for half-maximal inhibition (IC50) came out at 145 nM.

With `[2H]C([2H])([2H])NC(=O)c1nnc(Nc2cn(CC)nn2)cc1Nc1cccc(-c2ncc(F)cn2)c1OC` [Example 89, 6-((1-ethyl-1H-1,2,3-triazol-4-yl)amino)-4-((3-(5-fluoropyrimidin-2-yl)-2-methoxyphenyl)amino)-N-(methyl-d3)pyridazine-3-carboxamide], the IC50 was 250 nM. `[2H]C([2H])([2H])NC(=O)c1nnc(Nc2cnn(C)n2)cc1Nc1cccc(-c2ncc(F)cn2)c1OC` [Example 90, 4-((3-(5-fluoropyrimidin-2-yl)-2-methoxyphenyl)amino)-N-(methyl-d3)-6-((2-methyl-2H-1,2,3-triazol-4-yl)amino)pyridazine-3-carboxamide]: the IC50 worked out at 170 nM. For `[2H]C([2H])([2H])NC(=O)c1nnc(Nc2cn(C)nn2)cc1Nc1cccc(-c2ncc(F)cn2)c1OC` [Example 91, 4-((3-(5-fluoropyrimidin-2-yl)-2-methoxyphenyl)amino)-N-(methyl-d3)-6-((1-methyl-1H-1,2,3-triazol-4-yl)amino)pyridazine-3-carboxamide], the IC50 came to 167 nM. Turning to `[2H]C([2H])([2H])NC(=O)c1nnc(Nc2cn(CC)nn2)cc1Nc1cc(F)cc(-c2ncccn2)c1OC` [Example 92, 6-((1-ethyl-1H-1,2,3-triazol-4-yl)amino)-4-((5-fluoro-2-methoxy-3-(pyrimidin-2-yl)phenyl)amino)-N-(methyl-d3)pyridazine-3-carboxamide], the IC50 is 136 nM. Turning to `[2H]C([2H])([2H])NC(=O)c1nnc(Nc2cn(C)nn2)cc1Nc1cc(F)cc(-c2ncccn2)c1OC` [Example 93, 4-((5-fluoro-2-methoxy-3-(pyrimidin-2-yl)phenyl)amino)-N-(methyl-d3)-6-((1-methyl-1H-1,2,3-triazol-4-yl)amino)pyridazine-3-carboxamide], the concentration for half-maximal inhibition (IC50) amounted to 413 nM. For the compound `[2H]C([2H])([2H])NC(=O)c1nnc(Nc2ccc(C)nn2)cc1Nc1cccc(-c2ncc(F)cn2)c1OC` [Example 94, 4-((3-(5-fluoropyrimidin-2-yl)-2-methoxyphenyl)amino)-N-(methyl-d3)-6-((6-methylpyridazin-3-yl)amino)pyridazine-3-carboxamide], the IC50 turned out to be 38 nM.

Turning to `[2H]C([2H])([2H])NC(=O)c1nnc(Nc2ccc(C#N)nn2)cc1Nc1cccc(-c2ncc(F)cn2)c1OC` [Example 95, 6-((6-cyanopyridazin-3-yl)amino)-4-((3-(5-fluoropyrimidin-2-yl)-2-methoxyphenyl)amino)-N-(methyl-d3)pyridazine-3-carboxamide], the IC50 amounted to 182 nM. As to `[2H]C([2H])([2H])NC(=O)c1nnc(Nc2ccc(OC)nn2)cc1Nc1cccc(-c2ncccn2)c1OC` [Example 96, 4-((2-methoxy-3-(pyrimidin-2-yl)phenyl)amino)-6-((6-methoxypyridazin-3-yl)amino)-N-(methyl-d3)pyridazine-3-carboxamide], the IC50 is 96 nM.

Turning to `[2H]C([2H])([2H])NC(=O)c1nnc(Nc2ccc(OC)nn2)cc1Nc1cccc(-c2ncc(F)cn2)c1OC` [Example 97, 4-((3-(5-fluoropyrimidin-2-yl)-2-methoxyphenyl)amino)-6-((6-methoxypyridazin-3-yl)amino)-N-(methyl-d3)pyridazine-3-carboxamide], the 50% inhibitory concentration (IC50) came out at 80 nM. For the compound `[2H]C([2H])([2H])NC(=O)c1nnc(Nc2ccc(C(F)(F)F)nn2)cc1Nc1cccc(-c2ncccn2)c1OC` [Example 98, 4-((2-methoxy-3-(pyrimidin-2-yl)phenyl)amino)-N-(methyl-d3)-6-((6-(trifluoromethyl)pyridazin-3-yl)amino)pyridazine-3-carboxamide], the IC50 amounted to 112 nM. For `[2H]C([2H])([2H])NC(=O)c1nnc(Nc2ccc(C3CC3)nn2)cc1Nc1cccc(-c2ncc(F)cn2)c1OC` [Example 99, 6-((6-cyclopropylpyridazin-3-yl)amino)-4-((3-(5-fluoropyrimidin-2-yl)-2-methoxyphenyl)amino)-N-(methyl-d3)pyridazine-3-carboxamide] the value was 71 nM.

For the compound `[2H]C([2H])([2H])NC(=O)c1nnc(Nc2cc3ccccc3nn2)cc1Nc1cccc(-c2ncc(F)cn2)c1OC` [Example 100, 6-(cinnolin-3-ylamino)-4-((3-(5-fluoropyrimidin-2-yl)-2-methoxyphenyl)amino)-N-(methyl-d3)pyridazine-3-carboxamide], the IC50 amounted to 165 nM.

Source of the values: US12479831B2, “Substituted N(-methyl-D3)pyridazine-3-carboxamide or M-(methyl-D3)-nicotinamide compounds as IL-12, IL-23 and/or IFNα modulators” (BRISTOL-MYERS SQUIBB COMPANY, priority 2020, dated 2025).
